In article PMC11938273 (Journal of Chemical Information and Modeling, 2025) one finds CNS status data, which are given here for 27 compounds.

Counter-ions that a name gives are not always drawn.

For the first data set the following is noted: in vivo; cited from earlier work.
As to `CCC(C)N(C)C(=O)c1cc2ccccc2c(-c2ccccc2Cl)n1` (stereo not drawn) [PK11195, N-(sec-butyl)-1-(2-chlorophenyl)-N-methylisoquinoline3-carboxamide], the CNS status result is “Positive”.
For the compound `CCC(=O)OC1CCNCC1` [PMP, piperidin-4-yl propionate], the CNS status result is “Positive”.
As to `CCC(=O)NS(=O)(=O)c1ccc(-c2c(-c3ccccc3)noc2C)cc1` [Parecoxib, N-{[4-(5-Methyl-3-phenyl-1,2-oxazol4-yl)phenyl]sulfonyl}propanamide], the CNS status entry is reported as “Negative”.
Consider `CNC(=O)Oc1ccc2c(c1)[C@]1(C)CCN(C)[C@@H]1N2C` [Physostigmine, (3aS,8aR)-1,3a,8-trimethyl-1,2,3,3a,8,8a-hexahydropyrrolo[2,3-b]indol-5-yl methylcarbamate], for which the CNS status entry is given as “Positive”.
Turning to `CN/C(=C\[N+](=O)[O-])NCCSCc1ccc(CN(C)C)o1` [Ranitidine, (E)-N-{2-[({5-[(Dimethylamino)methyl]-2-furyl}methyl)sulfanyl]ethyl}-N′-methyl-2-nitro-1,1-ethenediamine], the CNS status entry was “Efflux transporter substrate”.
Take `COC(=O)c1ccccc1-c1c2ccc(=N)cc-2oc2cc(N)ccc12` [Rhodamine 123, 6-Amino-9-[2-(methoxycarbonyl)phenyl]-3H-xanthen-3-iminium]: the CNS status result is “Efflux transporter substrate”.
Take `CC(C)c1nc(CN(C)C(=O)N[C@H](C(=O)N[C@@H](Cc2ccccc2)C[C@H](O)[C@H](Cc2ccccc2)NC(=O)OCc2cncs2)C(C)C)cs1` [Ritonavir, (1E,2S)-N-[(2S,4S,5S)-4-Hydroxy-5-{(E)-[hydroxy(1,3-thiazol-5-ylmethoxy)methylene]amino}-1,6-diphenyl-2-hexanyl]-2-[(E)-(hydroxy{[(2-isopropyl-1,3-thiazol-4-yl)methyl](methyl)amino}methylene)amino]-3-methylbutanimidic acid]: the CNS status entry is reported as “Efflux transporter substrate”.
Take `CS(=O)(=O)c1ccc(C2=C(c3ccccc3)C(=O)OC2)cc1` [Rofecoxib, 4-[4-(Methylsulfonyl)phenyl]-3-phenyl2(5H)-furanone]: the CNS status result was “Negative”.
With `COc1ccc(C2CNC(=O)C2)cc1OC1CCCC1` (stereo not drawn) [Rolipram, 4-(3-(Cyclopentyloxy)-4-methoxyphenyl)pyrrolidin-2-one], the CNS status result is listed as “Positive”.
Turning to `CC[C@H]1OC(=O)[C@H](C)[C@@H](O[C@H]2C[C@@](C)(OC)[C@@H](O)[C@H](C)O2)[C@H](C)[C@@H](O[C@@H]2O[C@H](C)C[C@H](N(C)C)[C@H]2O)[C@](C)(O)C[C@@H](C)/C(=N\OCOCCOC)[C@H](C)[C@@H](O)[C@]1(C)O` [Roxithromycin], the CNS status result is given as “Negative”.
`CN1CCc2cc(Cl)c(O)cc2[C@@H](c2ccccc2)C1` [SCH-23390 hydrochloride, (R)-8-chloro-3-methyl-5-phenyl-2,3,4,5-tetrahydro1H-benzo[d]azepin-7-ol]: the CNS status entry was “Positive”.
Consider `COCC1=C(C(=O)OC)[C@H](c2ccc(F)c(F)c2)N(C(=O)NCCCN2CCC(c3cccc(NC(C)=O)c3)CC2)C(=O)N1` [SNAP7941, methyl 3-((3-(4-(3-acetamidophenyl)piperidin-1-yl)propyl)carbamoyl)-4-(3,4-difluorophenyl)-6-(methoxymethyl)-2-oxo-1,2,3,4-tetrahydropyrimidine-5-carboxylate], for which the CNS status entry is “Efflux transporter substrate”.
Consider `Cc1nc2n(c(=O)c1CCN1CCC(C(=O)c3ccc(F)cc3)CC1)CCS2` [Setoperone, 6-(2-(4-(4-Fluorobenzoyl)piperidin-1-yl)ethyl)-7-methyl-2H-thiazolo[3,2-a]pyrimidin-5(3H)-one], for which the CNS status entry was “Positive”.
`N[C@@H](CC(=O)N1CCn2c(nnc2C(F)(F)F)C1)Cc1cc(F)c(F)cc1F` [Sitagliptin, (3R)-3-Amino-1-[3-(trifluoromethyl)-5,6-dihydro[1,2,4]triazolo[4,3-a]pyrazin-7(8H)-yl]-4-(2,4,5-trifluorophenyl)-1-butanone]: the CNS status entry was “Negative”.
With `CC(C)NCC(O)c1ccc(NS(C)(=O)=O)cc1` (stereo not drawn) [Sotalol, N-{4-[1-Hydroxy-2-(isopropylamino)ethyl]phenyl}methanesulfonamide], the CNS status result is “Negative”.
In the case of `COc1cc2c(cc1OC)CN(CCc1ccc(NC(=O)c3cc(OC)c(OC)cc3NC(=O)c3cnc4ccccc4c3)cc1)CC2` [Tariquidar, N-[2-({4-[2-(6,7-Dimethoxy-3,4-dihydro-2(1H)-isoquinolinyl)ethyl]phenyl}carbamoyl)-4,5-dimethoxyphenyl]-3-quinolinecarboxamide], the CNS status result is listed as “Efflux transporter substrate”.
Regarding `COc1cc([C@@H]2c3cc4c(cc3[C@@H](O[C@@H]3O[C@@H]5CO[C@@H](c6cccs6)O[C@H]5[C@H](O)[C@H]3O)[C@H]3COC(=O)[C@H]23)OCO4)cc(OC)c1O` [Teniposide, (5S,5aR,8aR,9R)-9-(4-Hydroxy-3,5-dimethoxyphenyl)-8-oxo-5,5a,6,8,8a,9-hexahydrofuro[3′,4′:6,7]naphtho[2,3-d][1,3]dioxol-5-yl 4,6-O-(2-thienylmethylene)-β-D-glucopyranoside], the CNS status result is reported as “Efflux transporter substrate”.
On to `Cc1ccc(C(=O)c2cc(O)c(O)c([N+](=O)[O-])c2)cc1` [Tolcapone, (3,4-dihydroxy-5-nitrophenyl)(p-tolyl)methanone], for which the CNS status entry is “Negative”.
For `CC[C@]1(O)C[C@@H]2CN(CCc3c([nH]c4ccccc34)[C@@](C(=O)OC)(c3cc4c(cc3OC)N(C)[C@H]3[C@@](O)(C(=O)OC)[C@H](OC(C)=O)[C@]5(CC)C=CCN6CC[C@]43[C@@H]65)C2)C1` [Vinblastine, Dimethyl (2β,3β,4β,5α,12β,19α)-15-[(5S,9S)-5-ethyl-5-hydroxy-9-(methoxycarbonyl)-1,4,5,6,7,8,9,10-octahydro-2 H-3,7-methanoazacycloundecino [5,4-b]indol-9-yl]-3-hydroxy-16-methoxy-1-methyl-6,7-didehydroaspidospermidine3,4-dicarboxylate], the CNS status result is given as “Efflux transporter substrate”.
Regarding `CC[C@]1(O)C[C@H]2CN(CCc3c([nH]c4ccccc34)[C@@](C(=O)OC)(c3cc4c(cc3OC)N(C=O)[C@H]3[C@@](O)(C(=O)OC)[C@H](OC(C)=O)[C@]5(CC)C=CCN6CC[C@]43[C@@H]65)C2)C1` [Vincristine, (3aR,3a1R,4R,5S,5aR,10bR)-Methyl 4-acetoxy-3a-ethyl-9-((5S,7S,9S)-5-ethyl-5-hydroxy-9-(methoxycarbonyl)-2,4,5,6,7,8,9,10-octahydro-1 H-3,7-methano[1]azacycloundecino[5,4-b]indol-9-yl)-6-formyl-5-hydroxy-8-methoxy3a,3a1,4,5,5a,6,11,12-octahydro-1 H-indolizino[8,1-cd]carbazole-5-carboxylate], the CNS status entry was “Efflux transporter substrate”.
Regarding `COc1ccccc1N1CCN(CCN(C(=O)C2CCCCC2)c2ccccn2)CC1` [WAY-100635, N-(2-(4-(2-methoxyphenyl)piperazin-1-yl)ethyl)-N-(pyridin-2-yl)], the CNS status result was “Positive”.
Turning to `COC(=O)[C@H]1[C@@H](c2ccc(F)cc2)C[C@@H]2CC[C@H]1N2C/C=C/I` [beta-CFT, (1R,2S,3S,5S)-methyl-3-(4-fluorophenyl)-8-((E)-3-iodoallyl)-8-azabicyclo[3.2.1]octane-2-carboxylate], the CNS status result is on record as “Positive”.
As for `COC(=O)[C@H]1[C@@H](c2ccc(I)cc2)C[C@@H]2CC[C@H]1N2C` [beta-CIT, (1R,2S,3S,5S)-methyl-3-(4-iodophenyl)-8-methyl-8-azabicyclo [3.2.1]octane-2-carboxylate], the CNS status result was “Positive”.
With `CN1[C@H]2CC[C@@H]1[C@@H](c1cc(-c3ccccc3)no1)[C@@H](c1ccc(Cl)cc1)C2` [beta-CPPIT, 5-((1R,2S,3S,5S)-3-(4-chlorophenyl)-8-methyl-8-azabicyclo[3.2.1]octan-2-yl)-3-phenylisoxazole], the CNS status result is “Positive”.
For `CNC(C)C(O)c1cccc(O)c1` (stereo not drawn) [mHED, 3-[1-Hydroxy-2-(methylamino)propyl]phenol], the CNS status result is “Negative”.
As for Teicoplanin, the CNS status result is recorded as “Negative”.

For the next data set the following is noted: mouse, in vivo.
With `COC(=O)[C@H]1[C@@H](c2ccc(I)cc2)C[C@@H]2CC[C@H]1N2C/C=C/I` [Me@IPICIT, Methyl (1R,2S,3S,5S)-3-(4-iodophenyl)-8-[(2E)-3-iodo-2-propen-1-yl]-8-azabicyclo [3.2.1]octane-2-carboxylate], the CNS status entry is “Positive”.
